From ChEMBL document CHEMBL1134910 (Bioorg Med Chem Lett, 2002)

Legend:
[1] = target: Adenosine receptor A2a (Sus scrofa)
Adenosine receptor A2a = Adenosine receptor A2a (Rattus norvegicus, UniProt P30543)
Description: Receptor binding affinity for the adenosine A2A receptor was determined using [3H]ZM-241385 as a radioligand in rat

Adenosine receptor A3 = target: T1, Adenosine receptor A3 (Homo sapiens, UniProt P0DMS8); test: Binding affinity for Adenosine A3A receptor
T1 sequence (P0DMS8 whole entry): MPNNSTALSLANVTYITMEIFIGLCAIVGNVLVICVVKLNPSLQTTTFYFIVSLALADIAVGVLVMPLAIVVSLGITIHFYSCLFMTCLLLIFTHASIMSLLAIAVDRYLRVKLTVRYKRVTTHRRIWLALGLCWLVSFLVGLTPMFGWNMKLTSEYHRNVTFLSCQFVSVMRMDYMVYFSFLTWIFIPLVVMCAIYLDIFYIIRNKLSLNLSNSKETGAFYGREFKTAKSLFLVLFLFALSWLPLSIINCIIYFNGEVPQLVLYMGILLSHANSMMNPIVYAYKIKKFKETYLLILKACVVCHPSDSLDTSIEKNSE

Adenosine receptor A1 = target: T2, Adenosine receptor A1 (Homo sapiens, UniProt P30542); test: Binding affinity for adenosine (ADO) A1 receptor in CHO cells; type: cell-based
T2 sequence (P30542 whole entry): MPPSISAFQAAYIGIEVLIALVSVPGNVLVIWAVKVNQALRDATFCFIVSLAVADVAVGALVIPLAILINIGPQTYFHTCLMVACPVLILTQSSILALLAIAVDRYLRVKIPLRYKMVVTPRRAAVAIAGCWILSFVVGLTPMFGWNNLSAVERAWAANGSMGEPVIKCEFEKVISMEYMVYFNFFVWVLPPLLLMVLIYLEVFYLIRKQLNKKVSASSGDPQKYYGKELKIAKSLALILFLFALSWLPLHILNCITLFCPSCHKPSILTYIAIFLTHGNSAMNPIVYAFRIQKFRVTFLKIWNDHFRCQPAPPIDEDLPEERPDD

Chain of Adenosine receptor A2a (P30543 whole entry): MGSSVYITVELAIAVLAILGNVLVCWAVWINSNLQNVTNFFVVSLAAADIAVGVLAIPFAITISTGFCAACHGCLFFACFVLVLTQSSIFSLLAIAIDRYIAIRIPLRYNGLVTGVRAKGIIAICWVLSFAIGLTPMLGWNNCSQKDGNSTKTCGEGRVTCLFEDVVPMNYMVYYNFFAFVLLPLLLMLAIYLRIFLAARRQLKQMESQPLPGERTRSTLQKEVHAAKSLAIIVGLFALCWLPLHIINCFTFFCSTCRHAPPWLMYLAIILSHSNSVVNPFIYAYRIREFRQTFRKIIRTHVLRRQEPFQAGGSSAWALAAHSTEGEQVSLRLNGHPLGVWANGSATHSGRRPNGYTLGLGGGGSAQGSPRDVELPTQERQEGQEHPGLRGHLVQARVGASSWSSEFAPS

Compound | Ki [1] [µM] | Ki (Adenosine receptor A2a) [µM] | Ki (Adenosine receptor A3) [µM] | Ki (Adenosine receptor A1) [µM]
Cc1ccc(-c2cnn(-c3nc(N)c4ncn([C@@H]5O[C@H](CO)[C@@H](O)[C@H]5O)c4n3)c2)cc1 | 0.49 | 0.19 | – | –
Cc1cc(-c2ccccc2)nn1-c1nc(N)c2ncn([C@@H]3O[C@H](CO)[C@@H](O)[C@H]3O)c2n1 | > 100 | – | – | –
CN(C)C(=O)c1cnn(-c2nc(N)c3ncn([C@@H]4O[C@H](CO)[C@@H](O)[C@H]4O)c3n2)c1 | 0.44 | 0.14 | – | –
CNC(=O)c1cnn(-c2nc(N)c3ncn([C@@H]4O[C@H](CO)[C@@H](O)[C@H]4O)c3n2)c1 [REGADENOSON ANHYDROUS] | – | – | > 10 | > 16.5
CCCCc1c(C)nn(-c2nc(N)c3ncn([C@@H]4O[C@H](CO)[C@@H](O)[C@H]4O)c3n2)c1C | > 100 | – | – | –
CCCNC(=O)c1cnn(-c2nc(N)c3ncn([C@@H]4O[C@H](CO)[C@@H](O)[C@H]4O)c3n2)c1 | 0.12 | 0.05 | – | –
CC(C)(C)c1ccc(Cn2cc(-c3nc(N)c4ncn([C@@H]5O[C@H](CO)[C@@H](O)[C@H]5O)c4n3)cn2)cc1 | 2.42 | 5.29 | – | –
Nc1nc(-c2cnn(Cc3ccccc3)c2)nc2c1ncn2[C@@H]1O[C@H](CO)[C@@H](O)[C@H]1O | 1.58 | 1.61 | – | –
CCOC(=O)c1cnn(-c2nc(N)c3ncn([C@@H]4O[C@H](CO)[C@@H](O)[C@H]4O)c3n2)c1 | 1.28 | 0.06 | – | –
Nc1nc(N/N=C\C2CCCCC2)nc2c1ncn2[C@@H]1O[C@H](CO)[C@@H](O)[C@H]1O | – | 0.066 | – | –
CCNC(=O)c1cnn(-c2nc(N)c3ncn([C@@H]4O[C@H](CO)[C@@H](O)[C@H]4O)c3n2)c1 | 0.38 | 0.06 | – | –
NC(=O)c1cnn(-c2nc(N)c3ncn([C@@H]4O[C@H](CO)[C@@H](O)[C@H]4O)c3n2)c1 | 1.35 | 0.35 | – | –
COc1ccc(-c2cnn(-c3nc(N)c4ncn([C@@H]5O[C@H](CO)[C@@H](O)[C@H]5O)c4n3)c2)cc1 | 0.56 | 0.19 | – | –
CCCc1c(C)nn(-c2nc(N)c3ncn([C@@H]4O[C@H](CO)[C@@H](O)[C@H]4O)c3n2)c1C | > 100 | – | – | –

Results, then the compound that gave them:

Ki [1] [µM] | Ki (Adenosine receptor A2a) [µM] | Ki (Adenosine receptor A3) [µM] | Ki (Adenosine receptor A1) [µM] | Compound
0.88 | 0.22 | – | – | Nc1nc(-c2cnn(CC3CCCCC3)c2)nc2c1ncn2[C@@H]1O[C@H](CO)[C@@H](O)[C@H]1O
1.71 | 0.47 | – | – | C=CCCCn1cc(-c2nc(N)c3ncn([C@@H]4O[C@H](CO)[C@@H](O)[C@H]4O)c3n2)cn1
2.14 | 2.59 | > 10 | – | CCCCCn1cc(-c2nc(N)c3ncn([C@@H]4O[C@H](CO)[C@@H](O)[C@H]4O)c3n2)cn1
> 100 | > 100 | – | – | CCNC(=O)Cn1cc(-c2nc(N)c3ncn([C@@H]4O[C@H](CO)[C@@H](O)[C@H]4O)c3n2)cn1
> 100 | > 100 | – | – | CNC(=O)Cn1cc(-c2nc(N)c3ncn([C@@H]4O[C@H](CO)[C@@H](O)[C@H]4O)c3n2)cn1
> 100 | 6.11 | – | – | CCCCCCCCCCn1cc(-c2nc(N)c3ncn([C@@H]4O[C@H](CO)[C@@H](O)[C@H]4O)c3n2)cn1
> 100 | > 100 | – | – | Nc1nc(-c2cnn(CC(=O)O)c2)nc2c1ncn2[C@@H]1O[C@H](CO)[C@@H](O)[C@H]1O
> 100 | > 100 | – | – | Nc1nc(-c2cn[nH]c2)nc2c1ncn2[C@@H]1O[C@H](CO)[C@@H](O)[C@H]1O
6.68 | 2.62 | – | – | Nc1nc(-c2cnn(CCCC3CCCCC3)c2)nc2c1ncn2[C@@H]1O[C@H](CO)[C@@H](O)[C@H]1O
> 100 | > 100 | – | – | Cn1cc(-c2nc(N)c3ncn([C@@H]4O[C@H](CO)[C@@H](O)[C@H]4O)c3n2)cn1
5.9 | 2.26 | – | – | Nc1nc(-c2cnn(CCc3ccccc3)c2)nc2c1ncn2[C@@H]1O[C@H](CO)[C@@H](O)[C@H]1O
> 100 | 21 | – | – | CN(C)C(=O)Cn1cc(-c2nc(N)c3ncn([C@@H]4O[C@H](CO)[C@@H](O)[C@H]4O)c3n2)cn1
